Read-outs that look alike come from different tables or passages of the source.
How the values were obtained:
CD 34+ HSCs = conditions: LPS-activated HSC (10 ng/mL LPS overnight), single treatment with NP001 300 μM, grown 3 days, RNAseq
Description: CD 34+ HSCs were isolated from normal human adult bone marrow (>95% pure) and were either stimulated by 10 ng/mL LPS overnight or control medium. NP001 was added (300 μM; equivalent to phase 2 dose in humans) to washed HSC controls and LPS-activated HSC and the cells grown for 3 days in HSC medium. RNAseq with 100 M reads was performed on all cells and pathway analysis was performed.
By comparison with non-LPS-activated cells, LPS-activated pathways with p<10-15 were defined. […] NP001-treated, LPS-activated HSC gene expression pathways were evaluated in parallel. […] In addition, LPS-activated HSC were evaluated for factors (e.g., protein and genes), that were modulated following treatment with NP001.

patients with ALS = test system: patients with ALS
Text: Non-limiting examples of measures of clinical response include the ALS Functional Rating Scale Revised (ALSFRS-R) and respiratory vital capacity.
Stem cell reprogramming for long term disease regulation is evidenced by finding normalization of biomarkers for at least one month after the last dose in the 6-month administration procedure.
A major subset of ALS patients show evidence for ongoing inflammation that potentially contributes to disease progression.

[1] = ALS patients with plasma CRP levels >1.13 mg/L
[2] = clinical responders, 6-month pulse therapy, at least one month after last dose
[3] = mechanism of action studies in patients with ALS

sodium chlorite [NP001]
HSC gene expression pathways stimulated by LPS (CD 34+ HSCs): reversed
disease progression (patients with ALS; [1]): slowing disease progression
innate immune function (patients with ALS; [1]): restore innate immune function
plasma epidermal growth factor (EGF), long term change (patients with ALS; [2]): upregulation
plasma hepatocyte growth factor (HGF), long term change (patients with ALS; [2]): downregulation
plasma interleukin-10 (IL-10), long term change (patients with ALS; [2]): upregulation
plasma interleukin-18 (IL-18), long term change (patients with ALS; [2]): downregulation
plasma lipopolysaccharide (LPS), long term change (patients with ALS; [2]): downregulation
plasma lipopolysaccharide binding protein (LBP), long term change (patients with ALS; [2]): downregulation
plasma neopterin, long term change (patients with ALS; [2]): upregulation
plasma soluble CD163 (sCD163), long term change (patients with ALS; [2]): downregulation
8 biomarkers associated with microbial translocation (patients with ALS; intermittent dosing (3 days/month), patients whose disease slowed): prolonged regulation
disease progression (patients with ALS; [3]): slowing disease progression
innate immune function (patients with ALS; [3]): restore innate immune function

— patent US20250114396A1, “CHLORITE USES FOR STEM CELLS” (The Regents of the University of California, priority 2023, published 2025)
